# Assays:
# [1] = Stability of HCl salt at different temperatures for 8 hours; type: physicochemical
# Protocol: The stability of a Compound 2 HCl salt at different temperatures for 8 hours is shown below. The initial purity at TO is 96.5%. […] Similar observation was also made for several other compounds of the invention.
# [2] = Solubility of free base in buffers of varying pH; type: physicochemical
# Protocol: The solubility of a typical API (i.e., Compound 2 as disclosed herein) in free base form was evaluated in buffers of varying pH.
Structure (SMILES),"Purity (%) at 8 h ([1]; 50° C., 8 hours) [%]","Purity (%) at 8 h ([1]; 80° C., 8 hours) [%]","Purity (%) at 8 h ([1]; 100° C., 8 hours) [%]","stability assessment of HCl salt ([1]; different temperatures, 8 hours)","initial purity ([1]; stability study, at TO (start)) [%]",Ave. Conc. ([2]; 0.01N HCl) [mg/mL],Ave. Conc. ([2]; Water) [mg/mL],Ave. Conc. ([2]; pH 2.0) [mg/mL],Ave. Conc. ([2]; pH 3.0) [mg/mL],Ave. Conc. ([2]; pH 4.5) [mg/mL],Ave. Conc. ([2]; pH 6.8) [mg/mL]
"C=CC(=O)Nc1cc(Nc2nc(-c3ccnc(N4CCn5c(cc6c5CC(C)(C)C6)C4=O)c3CO)cn(C)c2=O)ccc1N1CCN(C2CCOCC2)C[C@@H]1C.Cl [Compound-2 HCl, N-(5-[[6-(2-[4,4-dimethyl-9-oxo-1,10-diazatricyclo[6.4.0.0^[2,6]]dodeca-2(6),7-dien-10-yl]-3-(hydroxymethyl)pyridin-4-yl)-4-methyl-3-oxopyrazin-2-yl]amino]-2-[(2S)-2-methyl-4-(oxan-4-yl)piperazin-1-yl]phenyl)prop-2-enamide hydrochloride]",95.7,90.1,84.7,not sufficiently stable,96.5,–,–,–,–,–,–
"C=CC(=O)Nc1cc(Nc2nc(-c3ccnc(N4CCn5c(cc6c5CC(C)(C)C6)C4=O)c3CO)cn(C)c2=O)ccc1N1CCN(C2CCOCC2)C[C@@H]1C [Compound 2, N-(5-[[6-(2-[4,4-dimethyl-9-oxo-1,10-diazatricyclo[6.4.0.0^[2,6]]dodeca-2(6),7-dien-10-yl]-3-(hydroxymethyl)pyridin-4-yl)-4-methyl-3-oxopyrazin-2-yl]amino]-2-[(2S)-2-methyl-4-(oxan-4-yl)piperazin-1-yl]phenyl)prop-2-enamide]",–,–,–,–,–,55.52,0.09,9.67,2.07,1.81,0.02
